From US20040023984A1, “Compounds for the treatment of alzheimer's disease” (priority 1987, published 2004)

How the values were obtained:
acetylcholinesterase [1] = molecular target: T1, acetylcholinesterase (Homo sapiens, UniProt P22303); assay: Inhibition of acetylcholinesterase, procedure of Ellman (acetylthiocholine substrate, photometric); type: biochemical
Method: The anticholinesterase activity of the compounds prepared in the above examples was assayed by an assay for inhibition of acetylcholinesterase following the procedure of G. Ellman, […], 7:88-95 (1961) Acetylthiocholine serves as substrate since it acts like acetylcholine. Acetylcholinesterase cleaves it to thiocholine and acetate which react with dithiobisnitrobenzoate to form a yellow color which is measured photometrically.
This assay was carried out at dilution of 10^−5 molar
The compounds were tested in the assay described after Example 5 but at different concentrations. The results obtained were as follows:
Further compounds were prepared by methods analogous to those described above and were tested in a cholinesterase assay as described above.

[2] = test system: scopolamine induced memory deficit; assay: Scopolamine dementia dark avoidance test (passive avoidance); type: in vivo, male CFW mice; settings: for # > CO/n / % > CO / Mean Latency: Table 2, cut-off 41 seconds
Method: Furnished data on the effects of these compound on cholinesterase activity were used to determine doses for testing. […] The two other compounds were tested at 1,3 and 10 mg/kg sc and did antagonize the scopolamine induced deficit.
Training and testing of passive avoidance were conducted in a two-compartment (light/dark) test cage. On the training day, mice were individually placed in the light half of the cage and after entering the dark compartment, were administered a 3 sec 0.4 mA footshock. They were then removed from the test chamber and returned to their home cages. Twenty-four hours later, the animals were again placed in the lighted half of the test cage and the latency to enter the dark compartment was measured.
All animals in each group of 15 naive male CFW mice were injected twice subcutaneously. Thirty minutes prior to training, animals were administered 3 mg/kg scopolamine HBr or its 0.9% NaCl vehicle. Five minutes prior to training, independent groups were administered one of three doses of the test compounds or the distilled water vehicle. One group in each experiment received vehicle twice, another group received scopolamine and the dH2O vehicle; the remaining groups received scopolamine and a test compound.
A cutoff value (CO), defined as the second-longest latency in the scopolamine/vehicle treated group, was used to determine whether a compound was active. If 20% or more of the animals in a treatment group had latencies greater than the CO value, the compound was considered active at that dose.
The three compounds were tested in two separate experiments; the results are presented below in Tables 1 and 2. Doses considered active are marked with an asterisk (*).

EEG—recorded activity = settings: relative to galanthamine; cited from earlier work
[3] = test system: respiration and heart activity; settings: relative to galanthamine; cited from earlier work
[4] = 3 mg/kg; cited from earlier work
cholinesterase = settings: relative to galanthamine; cited from earlier work
normal mice = assay: Passive avoidance shuttle box test using normal mice; type: in vivo
Method: (§1) Galanthamine n-butyl carbamate was tested in the nucleus basalis model for galanthamine discussed in the Hartounian et al paper noted above. In the test, mice were given the drug three and ½ hours before two learning trials in a shuttle box. They are placed in the lighted compartment and receive an electric footshock when they cross into the preferred side, the dark. The next day, they are again placed in the lighted compartment and the time to enter the dark is noted. The latency to enter the dark compartment is the basis for this figure. […] Below 50 mg/kg no side effects were noted.
In a similar test using normal mice, the mice remained in the light (less preferred) side of the shuttle box for over six minutes at the best dose (0.1 mg/kg) as compared to a best dose result of about 90 seconds for the nucleas basalis-lesioned animals.

mice = assay: Cholinergic side effects in mice at high doses; type: in vivo
Method: as §1

acetylcholinesterase [5] = molecular target: T1, acetylcholinesterase; assay: Acetylcholinesterase Inhibition Assay (other cholinesterase activity tests, may be less reliable); type: biochemical; settings: results may be less reliable
[6] = test system: nucleas basalis-lesioned animals; assay: Nucleus basalis model, passive avoidance in shuttle box; type: in vivo, mice
Source text: The following test provides a good animal model for Alzheimer's disease in humans: A selective lesion is placed in a subcortical nucleus (nucleus basalis of Meynert) with a resultant cortical cholinergic deficiency, similar in magnitude to that seen in early to moderate stage Alzheimer's disease. Numerous behavioral deficits, including the inability to learn and retain new information, characterizes this lesion. Drugs that can normalize these abnormalities would have a reasonable expectation of efficacy in Alzheimer's disease. Haroutunian, V, Kanof P, Davis, K L: Pharmacological alleviations of cholinergic-lesion-induced memory defects in rats. Life Sciences, 37:945-952 (1985).
as §1

T1 sequence (P22303 32-614, species assumed): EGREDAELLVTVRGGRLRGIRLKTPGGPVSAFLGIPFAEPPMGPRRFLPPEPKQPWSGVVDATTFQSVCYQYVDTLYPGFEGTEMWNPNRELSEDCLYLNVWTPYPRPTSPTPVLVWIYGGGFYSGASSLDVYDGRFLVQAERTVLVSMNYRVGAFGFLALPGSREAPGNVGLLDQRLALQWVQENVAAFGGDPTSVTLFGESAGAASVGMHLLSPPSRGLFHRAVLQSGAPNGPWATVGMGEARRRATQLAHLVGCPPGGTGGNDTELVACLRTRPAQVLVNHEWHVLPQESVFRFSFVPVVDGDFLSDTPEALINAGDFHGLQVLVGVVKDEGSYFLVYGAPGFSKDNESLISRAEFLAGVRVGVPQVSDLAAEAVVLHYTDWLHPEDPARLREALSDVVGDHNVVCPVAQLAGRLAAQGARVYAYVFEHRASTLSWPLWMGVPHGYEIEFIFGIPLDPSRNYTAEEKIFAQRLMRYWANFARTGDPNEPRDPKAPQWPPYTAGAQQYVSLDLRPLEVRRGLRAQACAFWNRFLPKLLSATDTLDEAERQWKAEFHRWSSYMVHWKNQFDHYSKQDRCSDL

With `COc1ccc2c3c1OC1CC(O)CC[C@@]31CCN(C)C2` (stereo partly drawn) [lycoramine] the inhibition at 10 µM (acetylcholinesterase [1]; 10^−5 M, further compounds, read-out: cholinesterase inhibition at 10^−5 M) was 30%, the “antagonism of scopolamine induced memory deficit” value ([2]; 10 mg/kg sc) was “active” and the “# > CO/n” value ([2]; scopolamine + 1 mg/kg sc) was 1/15. The “% > CO” value ([2]; scopolamine + 1 mg/kg sc) was 7%, the “Mean Latency” value ([2]; scopolamine + 1 mg/kg sc) was 26 s and the “# > CO/n” value ([2]; scopolamine + 3 mg/kg sc) was 0/15. The “Mean Latency” value ([2]; scopolamine + 3 mg/kg sc) was 19 s, the “% > CO” value ([2]; scopolamine + 3 mg/kg sc, * = dose considered active) was 0% and the “# > CO/n” value ([2]; scopolamine + 10 mg/kg sc) was 4/15. For the same molecule, the “Mean Latency” value ([2]; scopolamine + 10 mg/kg sc) was 48 s, the “% > CO” value ([2]; scopolamine + 10 mg/kg sc, * = dose considered active) was 27* % and the “concentration required to stimulate EEG-recorded activity, times that required for galanthamine” value (EEG—recorded activity) was “about five”.
For `COc1ccc2c3c1OC1CC(=O)C=C[C@@]31CCN(C)C2` (stereo partly drawn) [Narwedine, narwedine], the “cholinergic effects on respiration and heart activity, lower than galanthamine” value [3] is given as 50-80%, the anticurare activity [4] is given as “weak” and the “anti-cholinesterase activity as % of that of galanthamine” value (cholinesterase) is given as “less than 1%”.
For `COc1ccc2c3c1O[C@H]1C[C@H](O)C=C[C@@]31CCN(C)C2` [epigalanthamine], the “anti-cholinesterase activity as % of that of galanthamine” value (cholinesterase) is listed as 10%.
In the case of `CCCCNC(=O)O[C@@H]1C=CC23CCN(C)Cc4ccc(OC)c(c42)O[C@@H]3C1` (stereo partly drawn) [galanthamine n-butyl carbamate], the “best dose in passive avoidance test” value (normal mice) is reported as 0.1 mg/kg, the “time mice remained in the light side of the shuttle box” value (normal mice; best dose (0.1 mg/kg)) is reported as “over six” and the “inhibition of acetylcholinesterase at concentration 10^−5” value (acetylcholinesterase [1]; 10^−5 molar) is reported as 75. For the same molecule, the “dose below which no side effects were noted” value (mice; mice) was “Below 50 mg/kg”, the “side effects and lethality” value (mice; two mice given 100 mg/kg) was “showed cholinergic side effects but neither died” and the “% Inhibition at 10^−6” value (acetylcholinesterase [5]; 10^−6) was 37%. For the same molecule, the “% Inhibition at 10^−7” value (acetylcholinesterase [5]; 10^−7) was 9%, the “% Inhibition at −10^−5” value (acetylcholinesterase [5]; −10^−5) was 44% and the “best dose result, latency to enter the dark compartment” value ([6]; nucleas basalis-lesioned animals, best dose) was “about 90 seconds”. The “passive avoidance result compared with galanthamine” value ([6]; nucleus basalis model, mice) was “comparable with those obtained with galanthamine” and the “best dose in passive avoidance test” value ([6]; nucleus basalis model, mice, drug given three and ½ hours before learning trials) was 0.5 mg/kg.
